Tests used:
[1] = tested on: Hepatoma 22 (H22) solid tumors; assay: Inhibition of Hepatoma 22 (H22) solid tumors in mice, five-copy peptides; assay type: in vivo, Mus Musculus Balb/c female mice; conditions: positive medicine, 20 mg/kg, intraperitoneal injection, 1 time/day, 5 days
[2] = tested on: Hepatoma 22 (H22) solid tumors; assay: Inhibition of Hepatoma 22 (H22) solid tumors in mice, peptides with different number of copies; assay type: in vivo, Mus Musculus Balb/c female mice; conditions: positive medicine, 20 mg/kg, intraperitoneal injection, 1 time/day, 5 days

O=c1[nH]cc(F)c(=O)[nH]1 [Peptide 5-FU, 5-fluorouracil]
Average tumor weight [1]: 1.135 ± 0.248 g | Tumor inhibition rate (%) [1]: 51.62% | Tumor inhibition rate (%) [2]: 51.62% | Tumor weight [2]: 1.135 ± 0.248 g

Source: patent US20180371018A1, “POLYPEPTIDE COMPOUND, PREPARATION METHOD THEREFOR AND USE THEREOF” (priority 2015, published 2018)
